Experimental data taken from the supplement of paper PMC10307832.

What was measured:
Assay in all cases: relative viability (nuclei count vs DMSO), 5 days (fraction); higher = more cells survive
NCI-H2023 = system: NCI-H2023
Method in brief: (§1)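 Dosing by pin tool came one day after lung cancer cell lines were seeded in 1536-well plates, using either one drug or a fixed anchor-drug dose plus five library-drug doses (not always all listed) in √10 steps. After 5 days, nuclei were counted on 4× images. Relative viability is treated-well nuclei count divided by vehicle-well nuclei count, and values are medians of duplicate plates.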

NCI-H2126 = system: NCI-H2126
Method in brief: as §1

NCI-H322M = system: NCI-H322M
Method in brief: as §1

EPLC-272H = system: EPLC-272H
Method in brief: as §1

HCC-15 = system: HCC-15
Method in brief: as §1

NCI-H522 = system: NCI-H522
Method in brief: as §1

HOP-62 = system: HOP-62
Method in brief: as §1

COR-L 105 = system: COR-L 105
Method in brief: as §1

EMC-BAC-2 = system: EMC-BAC-2
Method in brief: as §1

NCI-H1993 = system: NCI-H1993
Method in brief: as §1

ChaGo-K-1 = system: ChaGo-K-1
Method in brief: as §1

UMC-11 = system: UMC-11
Method in brief: as §1

NCI-H3122 = system: NCI-H3122
Method in brief: as §1

NCI-H2085 = system: NCI-H2085
Method in brief: as §1

LXF-289 = system: LXF-289
Method in brief: as §1

CAL-12T = system: CAL-12T
Method in brief: as §1

NCI-H358 = system: NCI-H358
Method in brief: as §1

NCI-H441 = system: NCI-H441
Method in brief: as §1

NCI-H1915 = system: NCI-H1915
Method in brief: as §1

NCI-H1755 = system: NCI-H1755
Method in brief: as §1

ABC-1 = system: ABC-1
Method in brief: as §1

NCI-H1975 = system: NCI-H1975
Method in brief: as §1

NCI-H1666 = system: NCI-H1666
Method in brief: as §1

With COc1cc(N2CCC(C(N)=O)CC2)ccc1Nc1nc(N)c(Cl)c(Nc2ccccc2S(=O)(=O)C(C)C)n1 [HG-5-88-01] + CCNC(=O)c1noc(-c2cc(C(C)C)c(O)cc2O)c1-c1ccc(CN2CCOCC2)cc1 [Luminespib] (partner 0.01 µM) the relative viability (NCI-H2023; first compound 0.04 µM) was 0.397, the relative viability (NCI-H2023; first compound 0.1265 µM) was 0.673 and the relative viability (NCI-H2023; first compound 0.4 µM) was 0.671. It also gave a relative viability (NCI-H2023; first compound 1.265 µM) of 0.438, a relative viability (NCI-H2023; first compound 4 µM) of 0.267 and a relative viability (NCI-H2126; first compound 0.04 µM) of 0.836. For the same compound, the relative viability (NCI-H2126; first compound 0.1265 µM) was 0.975, the relative viability (NCI-H2126; first compound 0.4 µM) was 0.861 and the relative viability (NCI-H2126; first compound 1.265 µM) was 0.699. It also gave a relative viability (NCI-H2126; first compound 4 µM) of 0.57, a relative viability (NCI-H322M; first compound 0.04 µM) of 0.782 and a relative viability (NCI-H322M; first compound 0.1265 µM) of 0.835. It also gave a relative viability (NCI-H322M; first compound 0.4 µM) of 0.555, a relative viability (NCI-H322M; first compound 4 µM) of 0.627 and a relative viability (EPLC-272H; first compound 0.04 µM) of 0.384. It also gave a relative viability (EPLC-272H; first compound 0.1265 µM) of 0.269, a relative viability (EPLC-272H; first compound 0.4 µM) of 0.347 and a relative viability (EPLC-272H; first compound 1.265 µM) of 0.181. The relative viability (EPLC-272H; first compound 4 µM) was 0.204, the relative viability (HCC-15; first compound 0.04 µM) was 0.386 and the relative viability (HCC-15; first compound 0.1265 µM) was 0.2. For the same compound, the relative viability (HCC-15; first compound 0.4 µM) was 0.553, the relative viability (HCC-15; first compound 1.265 µM) was 0.468 and the relative viability (HCC-15; first compound 4 µM) was 0.41. The relative viability (NCI-H522; first compound 0.04 µM) was 1.06, the relative viability (NCI-H522; first compound 0.1265 µM) was 1.16 and the relative viability (NCI-H522; first compound 0.4 µM) was 1.05. It also gave a relative viability (NCI-H522; first compound 1.265 µM) of 0.852, a relative viability (NCI-H522; first compound 4 µM) of 1.21 and a relative viability (HOP-62; first compound 0.04 µM) of 0.889. For the same compound, the relative viability (HOP-62; first compound 0.1265 µM) was 0.932, the relative viability (HOP-62; first compound 0.4 µM) was 0.878 and the relative viability (HOP-62; first compound 1.265 µM) was 0.964. It also gave a relative viability (HOP-62; first compound 4 µM) of 1.01, a relative viability (COR-L 105; first compound 0.04 µM) of 0.664 and a relative viability (COR-L 105; first compound 0.1265 µM) of 1.02. The relative viability (COR-L 105; first compound 0.4 µM) was 0.851, the relative viability (COR-L 105; first compound 1.265 µM) was 0.903 and the relative viability (COR-L 105; first compound 4 µM) was 0.702. The relative viability (EMC-BAC-2; first compound 0.04 µM) was 1.09, the relative viability (EMC-BAC-2; first compound 0.1265 µM) was 1.25 and the relative viability (EMC-BAC-2; first compound 0.4 µM) was 1.14. It also gave a relative viability (EMC-BAC-2; first compound 1.265 µM) of 1.12, a relative viability (EMC-BAC-2; first compound 4 µM) of 0.892 and a relative viability (NCI-H1993; first compound 0.04 µM) of 0.957. The relative viability (NCI-H1993; first compound 0.1265 µM) was 0.826, the relative viability (NCI-H1993; first compound 0.4 µM) was 0.83 and the relative viability (NCI-H1993; first compound 1.265 µM) was 0.648. The relative viability (NCI-H1993; first compound 4 µM) was 0.578, the relative viability (ChaGo-K-1; first compound 0.04 µM) was 0.572 and the relative viability (ChaGo-K-1; first compound 0.1265 µM) was 0.682. It also gave a relative viability (ChaGo-K-1; first compound 0.4 µM) of 0.516, a relative viability (ChaGo-K-1; first compound 1.265 µM) of 0.66 and a relative viability (ChaGo-K-1; first compound 4 µM) of 0.733. The relative viability (UMC-11; first compound 0.04 µM) was 0.914, the relative viability (UMC-11; first compound 0.1265 µM) was 1.08 and the relative viability (UMC-11; first compound 1.265 µM) was 0.983. It also gave a relative viability (UMC-11; first compound 4 µM) of 1.12, a relative viability (NCI-H3122; first compound 0.04 µM) of 0.0748 and a relative viability (NCI-H3122; first compound 0.1265 µM) of 0.11. For the same compound, the relative viability (NCI-H3122; first compound 0.4 µM) was 0.106, the relative viability (NCI-H3122; first compound 1.265 µM) was 0.115 and the relative viability (NCI-H3122; first compound 4 µM) was 0.0981. The relative viability (NCI-H2085; first compound 0.04 µM) was 0.405, the relative viability (NCI-H2085; first compound 0.1265 µM) was 0.453 and the relative viability (NCI-H2085; first compound 0.4 µM) was 0.407. For the same compound, the relative viability (NCI-H2085; first compound 1.265 µM) was 0.434, the relative viability (NCI-H2085; first compound 4 µM) was 0.464 and the relative viability (LXF-289; first compound 0.04 µM) was 0.703. It also gave a relative viability (LXF-289; first compound 0.1265 µM) of 0.733, a relative viability (LXF-289; first compound 0.4 µM) of 0.698 and a relative viability (LXF-289; first compound 1.265 µM) of 0.721. For the same compound, the relative viability (LXF-289; first compound 4 µM) was 0.897, the relative viability (CAL-12T; first compound 0.04 µM) was 0.583 and the relative viability (CAL-12T; first compound 0.1265 µM) was 1.02. The relative viability (CAL-12T; first compound 0.4 µM) was 0.36, the relative viability (CAL-12T; first compound 1.265 µM) was 0.392 and the relative viability (CAL-12T; first compound 4 µM) was 0.255. For the same compound, the relative viability (NCI-H358; first compound 0.04 µM) was 0.335, the relative viability (NCI-H358; first compound 0.1265 µM) was 0.256 and the relative viability (NCI-H358; first compound 0.4 µM) was 0.422. The relative viability (NCI-H358; first compound 1.265 µM) was 0.099, the relative viability (NCI-H358; first compound 4 µM) was 0.148 and the relative viability (NCI-H441; first compound 0.04 µM) was 0.284. It also gave a relative viability (NCI-H441; first compound 0.1265 µM) of 0.292, a relative viability (NCI-H441; first compound 0.4 µM) of 0.476 and a relative viability (NCI-H441; first compound 1.265 µM) of 0.248. For the same compound, the relative viability (NCI-H441; first compound 4 µM) was 0.297, the relative viability (NCI-H1915; first compound 0.04 µM) was 0.774 and the relative viability (NCI-H1915; first compound 0.1265 µM) was 0.755. The relative viability (NCI-H1915; first compound 0.4 µM) was 0.792, the relative viability (NCI-H1915; first compound 1.265 µM) was 1.01 and the relative viability (NCI-H1915; first compound 4 µM) was 0.786. It also gave a relative viability (NCI-H1755; first compound 0.04 µM) of 0.401, a relative viability (NCI-H1755; first compound 0.1265 µM) of 0.32 and a relative viability (NCI-H1755; first compound 0.4 µM) of 0.427. For the same compound, the relative viability (NCI-H1755; first compound 1.265 µM) was 0.385, the relative viability (NCI-H1755; first compound 4 µM) was 0.599 and the relative viability (ABC-1; first compound 0.04 µM) was 0.406. The relative viability (ABC-1; first compound 0.1265 µM) was 0.86, the relative viability (ABC-1; first compound 0.4 µM) was 0.345 and the relative viability (ABC-1; first compound 1.265 µM) was 0.296. For the same compound, the relative viability (ABC-1; first compound 4 µM) was 0.587, the relative viability (NCI-H1975; first compound 0.04 µM) was 0.34 and the relative viability (NCI-H1975; first compound 0.1265 µM) was 0.215. It also gave a relative viability (NCI-H1975; first compound 0.4 µM) of 0.35, a relative viability (NCI-H1975; first compound 1.265 µM) of 0.171 and a relative viability (NCI-H1975; first compound 4 µM) of 0.174. The relative viability (NCI-H1666; first compound 0.04 µM) was 1.05, the relative viability (NCI-H1666; first compound 0.1265 µM) was 0.991 and the relative viability (NCI-H1666; first compound 0.4 µM) was 0.948. The relative viability (NCI-H1666; first compound 1.265 µM) was 0.925 and the relative viability (NCI-H1666; first compound 4 µM) was 0.777.
